According to patent US10039759B2, “Quinolines as FGFR kinase modulators” (priority 2011, dated 2018):
Like-named read-outs stand apart in the source and are kept apart here.

How the values were obtained:
FGFR3 (h) = FGFR3 (h) (Homo sapiens, UniProt P22607); experiment: FGFR3 (enzymatic assay), TR-FRET; format: biochemical; settings: 60 min, pIC50 = -log IC50 (M), average if tested multiple times
FGFR4 (h) = FGFR4 (h) (Homo sapiens, UniProt P22455); experiment: FGFR4 (enzymatic assay), TR-FRET; format: biochemical; settings: FGFR 4 pIC50, 5 μM ATP, 60 min; pIC50 = -log IC50 (M); average if tested multiple times
Sequence of FGFR4 (h) (P22455 22-802): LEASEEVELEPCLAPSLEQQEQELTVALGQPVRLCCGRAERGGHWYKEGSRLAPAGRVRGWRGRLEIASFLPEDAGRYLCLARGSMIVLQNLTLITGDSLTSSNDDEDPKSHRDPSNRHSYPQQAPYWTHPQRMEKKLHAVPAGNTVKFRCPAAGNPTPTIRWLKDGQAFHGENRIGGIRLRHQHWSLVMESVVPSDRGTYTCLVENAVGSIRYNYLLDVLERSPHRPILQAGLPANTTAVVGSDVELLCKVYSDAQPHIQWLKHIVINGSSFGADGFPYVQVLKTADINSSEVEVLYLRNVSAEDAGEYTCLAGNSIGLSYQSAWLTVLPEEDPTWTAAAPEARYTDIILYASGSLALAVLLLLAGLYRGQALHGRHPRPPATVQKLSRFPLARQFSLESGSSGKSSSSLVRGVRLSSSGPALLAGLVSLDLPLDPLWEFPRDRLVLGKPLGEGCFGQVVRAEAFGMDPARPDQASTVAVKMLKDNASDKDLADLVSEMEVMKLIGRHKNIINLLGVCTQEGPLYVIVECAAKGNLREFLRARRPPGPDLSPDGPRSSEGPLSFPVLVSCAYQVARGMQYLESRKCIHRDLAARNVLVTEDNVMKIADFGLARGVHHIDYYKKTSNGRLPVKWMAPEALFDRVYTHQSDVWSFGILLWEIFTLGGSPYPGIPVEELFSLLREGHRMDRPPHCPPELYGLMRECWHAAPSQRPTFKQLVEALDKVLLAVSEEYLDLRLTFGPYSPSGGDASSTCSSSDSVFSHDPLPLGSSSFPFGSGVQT

KDR (h) = KDR (h) (Homo sapiens, UniProt P35968); experiment: KDR (VEGFR2) (enzymatic assay), TR-FRET; format: biochemical; settings: 120 min, pIC50 = -log IC50 (M), average if tested multiple times
Sequence of KDR (h) (P35968 20-1356): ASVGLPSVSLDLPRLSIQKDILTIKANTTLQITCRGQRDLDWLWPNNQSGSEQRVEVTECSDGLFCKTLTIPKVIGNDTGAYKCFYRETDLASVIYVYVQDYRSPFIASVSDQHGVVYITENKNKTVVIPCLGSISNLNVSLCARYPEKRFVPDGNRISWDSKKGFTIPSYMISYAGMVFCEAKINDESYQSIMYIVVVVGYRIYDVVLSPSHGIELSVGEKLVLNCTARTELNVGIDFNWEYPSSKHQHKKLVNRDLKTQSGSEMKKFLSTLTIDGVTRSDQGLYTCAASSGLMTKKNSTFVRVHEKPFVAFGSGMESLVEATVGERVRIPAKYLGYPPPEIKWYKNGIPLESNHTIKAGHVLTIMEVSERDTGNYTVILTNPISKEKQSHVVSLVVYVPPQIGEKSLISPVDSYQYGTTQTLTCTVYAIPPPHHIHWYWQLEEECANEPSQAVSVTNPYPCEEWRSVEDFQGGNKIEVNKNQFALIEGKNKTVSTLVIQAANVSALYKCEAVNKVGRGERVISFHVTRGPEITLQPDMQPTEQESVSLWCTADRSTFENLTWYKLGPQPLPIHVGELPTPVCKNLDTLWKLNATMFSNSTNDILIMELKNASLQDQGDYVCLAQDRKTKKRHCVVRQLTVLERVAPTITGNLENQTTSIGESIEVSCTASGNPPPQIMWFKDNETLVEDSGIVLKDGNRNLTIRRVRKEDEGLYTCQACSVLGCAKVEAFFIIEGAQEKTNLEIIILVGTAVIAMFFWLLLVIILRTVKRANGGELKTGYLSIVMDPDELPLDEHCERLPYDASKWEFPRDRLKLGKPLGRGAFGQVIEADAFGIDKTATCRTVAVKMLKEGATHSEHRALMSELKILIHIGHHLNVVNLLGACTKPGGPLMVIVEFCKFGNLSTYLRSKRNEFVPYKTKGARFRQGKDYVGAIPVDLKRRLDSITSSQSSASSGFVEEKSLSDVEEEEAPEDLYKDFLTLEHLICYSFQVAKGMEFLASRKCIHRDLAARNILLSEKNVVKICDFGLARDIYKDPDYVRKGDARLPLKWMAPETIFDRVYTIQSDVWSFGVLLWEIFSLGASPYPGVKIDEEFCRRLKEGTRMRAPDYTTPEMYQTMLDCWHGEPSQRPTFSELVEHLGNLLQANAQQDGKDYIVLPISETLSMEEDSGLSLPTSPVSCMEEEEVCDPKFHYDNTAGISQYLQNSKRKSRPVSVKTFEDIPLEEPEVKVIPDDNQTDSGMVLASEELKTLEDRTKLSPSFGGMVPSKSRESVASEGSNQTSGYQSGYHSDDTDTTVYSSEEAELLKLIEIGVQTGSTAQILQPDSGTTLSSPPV
Procedure, shortened: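 Recombinant human KDR (150 ng/ml) phosphorylated 500 nM Btn-Flt3 with 3 μM ATP in HEPES pH 7.5/MnCl2 buffer, 1% DMSO, 120 min at room temperature; EDTA stop with Eu-anti-P-Tyr/SA-XL665 detection, TR-FRET read. IC50 and pIC50 derived from compound concentrations spanning 10 μM to 0.1 nM.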

[1] = target: T1, Ba/F3-FGFR3-transfected cells (Homo sapiens, UniProt P22607, cells depend on it, form not given); experiment: Ba/F3-FGFR3 (minus IL3 or plus IL3) cellular proliferation assay, Alamar Blue; format: cell-based; settings: minus IL3; 24 hours, Alamar Blue
T1 construct: BAF3-FGFR3 (MIN IL3 Alamar Blue- pIC50); other: minus IL3; 24 hours, Alamar Blue
T1 sequence (P22607 whole entry, change not shown): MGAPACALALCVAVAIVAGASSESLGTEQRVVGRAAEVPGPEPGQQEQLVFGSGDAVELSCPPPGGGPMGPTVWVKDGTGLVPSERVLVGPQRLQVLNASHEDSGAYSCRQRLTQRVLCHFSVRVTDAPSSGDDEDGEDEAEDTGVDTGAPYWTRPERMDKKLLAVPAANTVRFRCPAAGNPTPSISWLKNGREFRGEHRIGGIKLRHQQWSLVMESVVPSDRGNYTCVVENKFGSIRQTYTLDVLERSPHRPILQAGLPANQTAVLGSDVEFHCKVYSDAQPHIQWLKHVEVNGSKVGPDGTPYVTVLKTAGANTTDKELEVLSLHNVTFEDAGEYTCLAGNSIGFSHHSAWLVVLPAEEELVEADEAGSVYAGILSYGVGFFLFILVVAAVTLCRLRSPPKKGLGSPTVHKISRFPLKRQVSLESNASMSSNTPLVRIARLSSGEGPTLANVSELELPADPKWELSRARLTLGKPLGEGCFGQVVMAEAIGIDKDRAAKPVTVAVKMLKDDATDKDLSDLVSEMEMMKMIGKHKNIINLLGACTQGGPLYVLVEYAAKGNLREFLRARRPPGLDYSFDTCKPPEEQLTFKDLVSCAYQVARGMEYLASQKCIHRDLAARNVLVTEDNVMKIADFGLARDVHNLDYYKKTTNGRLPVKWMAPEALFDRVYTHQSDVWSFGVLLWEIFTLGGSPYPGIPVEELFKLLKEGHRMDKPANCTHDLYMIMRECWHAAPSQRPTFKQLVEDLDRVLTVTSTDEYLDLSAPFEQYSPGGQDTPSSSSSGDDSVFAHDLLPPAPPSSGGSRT
Procedure, shortened: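 Ba/F3-FGFR3 cells (20000 per well) in phenol red-free RPMI-1640 with 10% FBS were exposed to compound (10 μM to 0.1 nM) for 24 h at 37° C. Alamar Blue was then added for 4 h and fluorescence read (ex 540, em 590 nm) to give IC50/pIC50; the counterscreen was run with 10 ng/ml murine IL3.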

[2] = target: Ba/F3-FGFR4-transfected cells (Homo sapiens, UniProt P22455); experiment: Ba/F3-FGFR4 cellular proliferation assay, Alamar Blue; format: cell-based; settings: 24 hours
Sequence of Ba/F3-FGFR4-transfected cells (P22455 whole entry, change not shown): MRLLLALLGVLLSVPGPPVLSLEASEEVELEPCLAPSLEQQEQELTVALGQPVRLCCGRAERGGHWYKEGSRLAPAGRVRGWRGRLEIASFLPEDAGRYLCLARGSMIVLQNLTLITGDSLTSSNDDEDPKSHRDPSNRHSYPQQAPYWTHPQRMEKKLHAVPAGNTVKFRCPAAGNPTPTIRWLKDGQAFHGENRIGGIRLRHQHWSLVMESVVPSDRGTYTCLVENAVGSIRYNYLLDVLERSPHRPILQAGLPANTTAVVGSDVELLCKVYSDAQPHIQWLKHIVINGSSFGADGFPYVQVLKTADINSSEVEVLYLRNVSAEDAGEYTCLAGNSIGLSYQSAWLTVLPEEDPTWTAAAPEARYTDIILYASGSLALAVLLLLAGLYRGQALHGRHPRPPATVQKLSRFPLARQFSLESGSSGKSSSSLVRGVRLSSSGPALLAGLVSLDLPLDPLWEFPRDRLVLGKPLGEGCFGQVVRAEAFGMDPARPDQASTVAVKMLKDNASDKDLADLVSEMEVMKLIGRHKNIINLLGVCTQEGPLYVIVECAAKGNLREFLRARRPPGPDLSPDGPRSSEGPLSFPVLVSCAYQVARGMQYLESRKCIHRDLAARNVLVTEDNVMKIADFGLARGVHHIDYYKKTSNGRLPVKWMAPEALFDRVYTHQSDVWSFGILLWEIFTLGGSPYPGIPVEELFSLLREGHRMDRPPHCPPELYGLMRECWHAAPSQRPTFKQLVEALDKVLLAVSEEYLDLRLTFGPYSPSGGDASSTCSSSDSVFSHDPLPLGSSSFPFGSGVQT
Procedure, shortened: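 Ba/F3 cells transfected with human FGFR4, 20000 per well in phenol red-free RPMI-1640 with 10% FBS, exposed to compound (10 μM to 0.1 nM) for 24 h at 37 °C. Viability by Alamar Blue (resazurin), 4 h, fluorescence ex 540/em 590 nm; IC50 and pIC50 calculated.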

[3] = 25 μM ATP, read-out: hFGFR 3 pIC50 (converted)
[4] = 3 μM ATP, read-out: VEGFR KDR pIC50 (converted)

Sequence of FGFR3 (h) (P22607 23-806): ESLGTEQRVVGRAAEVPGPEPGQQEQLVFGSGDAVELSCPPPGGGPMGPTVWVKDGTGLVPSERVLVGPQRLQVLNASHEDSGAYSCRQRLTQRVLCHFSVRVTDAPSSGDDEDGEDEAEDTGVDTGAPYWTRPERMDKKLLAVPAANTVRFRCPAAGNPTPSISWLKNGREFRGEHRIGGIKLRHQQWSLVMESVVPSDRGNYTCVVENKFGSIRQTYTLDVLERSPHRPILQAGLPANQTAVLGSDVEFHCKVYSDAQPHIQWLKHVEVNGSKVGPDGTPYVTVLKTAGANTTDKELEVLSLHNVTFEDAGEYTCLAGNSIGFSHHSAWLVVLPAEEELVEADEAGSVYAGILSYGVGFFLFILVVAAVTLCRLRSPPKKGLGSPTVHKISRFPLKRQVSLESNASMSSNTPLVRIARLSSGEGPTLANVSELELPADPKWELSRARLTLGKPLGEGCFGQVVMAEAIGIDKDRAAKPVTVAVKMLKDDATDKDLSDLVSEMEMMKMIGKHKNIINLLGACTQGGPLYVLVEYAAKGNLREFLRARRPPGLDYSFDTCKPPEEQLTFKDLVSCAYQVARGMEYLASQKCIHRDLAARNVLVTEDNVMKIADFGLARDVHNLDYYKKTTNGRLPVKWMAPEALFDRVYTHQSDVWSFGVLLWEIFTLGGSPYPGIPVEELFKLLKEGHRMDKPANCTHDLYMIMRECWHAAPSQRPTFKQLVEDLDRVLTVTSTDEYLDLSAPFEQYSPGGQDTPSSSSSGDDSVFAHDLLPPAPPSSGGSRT

`COc1cc(OC)cc(N(CC#Cc2nccc(OC)n2)c2ccc3ncc(-c4cnn(C)c4)cc3c2)c1` [Compound 16] showed an IC50 (FGFR3 (h); [3]) of 1.35e-08 M, an IC50 (FGFR4 (h)) of 3.72e-08 M and an IC50 (KDR (h); [4]) of 8.91e-07 M. The “BAF3-FGFR3 (MIN IL3 Alamar Blue- pIC50)” value [1] was >8 and the “BAF3-FGFR 4 (pIC50)” value [2] was 8.21.
With `COc1cc(OC)cc(N(CC#Cc2ncccc2OC)c2ccc3ncc(-c4cnn(C)c4)cc3c2)c1` [Compound 17] the IC50 (FGFR3 (h); [3]) was 5.89e-08 M, the IC50 (FGFR4 (h)) was 2.75e-07 M and the IC50 (KDR (h); [4]) was > 1e-06 M. The “BAF3-FGFR3 (MIN IL3 Alamar Blue- pIC50)” value [1] was 7.63 and the “BAF3-FGFR 4 (pIC50)” value [2] was 6.98.
For `COc1cc(OC)cc(N(Cc2ncc[nH]2)c2ccc3ncc(-c4cnn(C)c4)cc3c2)c1` [Compound 18], the IC50 (FGFR3 (h); [3]) was 1.26e-09 M, the IC50 (FGFR4 (h)) was 4.79e-09 M and the IC50 (KDR (h); [4]) was 1.15e-07 M. The “BAF3-FGFR3 (MIN IL3 Alamar Blue- pIC50)” value [1] was 7.22 and the “BAF3-FGFR 4 (pIC50)” value [2] was 6.57.
`COc1cc(OC)cc(N(CCCN2CCCO2)c2ccc3ncc(-c4cnn(C)c4)cc3c2)c1` [Compound 19] was tested, and the IC50 (FGFR3 (h); hFGFR 3 pIC50, 25 μM ATP) was 5.62e-09 M, the IC50 (FGFR4 (h)) was 6.03e-08 M and the IC50 (KDR (h); VEGFR KDR pIC50, 3 μM ATP) was 1e-07 M. The “BAF3-FGFR3 (MIN IL3 Alamar Blue- pIC50)” value [1] was 6.26 and the “BAF3-FGFR 4 (pIC50)” value [2] was 5.71.
Work on `COc1cc(OC)cc(N(CCNC(C)C)c2ccc3ncc(-c4cn[nH]c4)cc3c2)c1` [Compound 21] yielded an IC50 (FGFR3 (h); [3]) of 3.39e-09 M, an IC50 (FGFR4 (h)) of 5.37e-09 M and an IC50 (KDR (h); [4]) of 1.02e-07 M. The “BAF3-FGFR3 (MIN IL3 Alamar Blue- pIC50)” value [1] was 7.57 and the “BAF3-FGFR 4 (pIC50)” value [2] was 6.79.
`COc1cc(OC)cc(N(CCNC(C)C)c2ccc3ncc(-c4cnn(C5CCCCO5)c4)cc3c2)c1` (centres unmarked) [Compound 22] was tested, and the IC50 (FGFR3 (h); [3]) was 2.4e-09 M, the IC50 (FGFR4 (h)) was 4.37e-09 M and the IC50 (KDR (h); [4]) was 4.37e-08 M. For the same molecule, the “BAF3-FGFR3 (MIN IL3 Alamar Blue- pIC50)” value [1] was 7.78 and the “BAF3-FGFR 4 (pIC50)” value [2] was ~7.11.
`COc1cc(OC)c(F)c(N(CC#Cc2ncccc2OC)c2ccc3ncc(-c4cnn(C)c4)cc3c2)c1` [Compound 26] was tested, and the IC50 (FGFR3 (h); hFGFR 3 pIC50, 25 μM ATP) was 4.9e-09 M, the IC50 (FGFR4 (h)) was 1.26e-08 M and the IC50 (KDR (h); [4]) was 4.27e-07 M. The “BAF3-FGFR3 (MIN IL3 Alamar Blue- pIC50)” value [1] was 8.17 and the “BAF3-FGFR 4 (pIC50)” value [2] was 7.77.
`COc1cccnc1C#CCN(c1ccc2ncc(-c3cnn(C)c3)cc2c1)c1c(F)c(OC)cc(OC)c1F` [Compound 27] was tested, and the IC50 (FGFR3 (h); [3]) was 2.37e-09 M, the IC50 (FGFR4 (h)) was 3.13e-09 M and the IC50 (KDR (h); [4]) was 3.76e-08 M. For the same molecule, the “BAF3-FGFR3 (MIN IL3 Alamar Blue- pIC50)” value [1] was 8.22 and the “BAF3-FGFR 4 (pIC50)” value [2] was 8.18.
In the case of `CNCCN(c1ccc2ncc(-c3cnn(C)c3)cc2c1)c1c(F)c(OC)cc(OC)c1F` [Compound 43], the IC50 (FGFR3 (h); [3]) is reported as 2.4e-09 M, the IC50 (FGFR4 (h)) is reported as 2.63e-09 M and the IC50 (KDR (h); [4]) is reported as 1.48e-08 M. The “BAF3-FGFR3 (MIN IL3 Alamar Blue- pIC50)” value [1] was ~8 and the “BAF3-FGFR 4 (pIC50)” value [2] was ~8.02.
`COc1cc(OC)cc(N(CCCN2CCCC2CNS(=O)(=O)C(F)(F)F)c2ccc3ncc(-c4cnn(C)c4)cc3c2)c1` (centres unmarked) [Compound 47] was tested, and the IC50 (FGFR3 (h); [3]) was 1.32e-09 M, the IC50 (FGFR4 (h)) was 2.19e-09 M and the IC50 (KDR (h); [4]) was 1.17e-08 M. The “BAF3-FGFR3 (MIN IL3 Alamar Blue- pIC50)” value [1] was 8.46 and the “BAF3-FGFR 4 (pIC50)” value [2] was 7.44.
With `COc1cc(OC)cc(N(CC#Cc2nccn2C)c2ccc3ncc(-c4cnn(C)c4)cc3c2)c1` [Compound 48] the IC50 (FGFR3 (h); [3]) was 7.94e-09 M, the IC50 (FGFR4 (h)) was 3.16e-08 M and the IC50 (KDR (h); [4]) was 2.88e-07 M. For the same molecule, the “BAF3-FGFR3 (MIN IL3 Alamar Blue- pIC50)” value [1] was 7.62 and the “BAF3-FGFR 4 (pIC50)” value [2] was 7.17.
Work on `COc1cc(OC)cc(N(Cc2ncc[nH]2)c2ccc3ncc(-c4ccncc4)cc3c2)c1` [Compound 57] yielded an IC50 (FGFR3 (h); [3]) of 1.05e-09 M, an IC50 (FGFR4 (h)) of 4.47e-09 M and an IC50 (KDR (h); [4]) of 4.57e-07 M. For the same molecule, the “BAF3-FGFR3 (MIN IL3 Alamar Blue- pIC50)” value [1] was ~6.77 and the “BAF3-FGFR 4 (pIC50)” value [2] was 6.16.
For `COc1cc(OC)cc(N(Cc2nccn2S(=O)(=O)N(C)C)c2ccc3ncc(-c4ccncc4)cc3c2)c1` [Compound 58], the IC50 (FGFR3 (h); [3]) was 2.75e-08 M, the IC50 (FGFR4 (h)) was 1.86e-07 M and the IC50 (KDR (h); [4]) was 7.24e-07 M. The “BAF3-FGFR3 (MIN IL3 Alamar Blue- pIC50)” value [1] was 5.57 and the “BAF3-FGFR 4 (pIC50)” value [2] was <5.
Work on `COc1cc(OC)cc(N(Cc2ncc[nH]2)c2ccc3ncc(-c4cccnc4)cc3c2)c1` [Compound 59] yielded an IC50 (FGFR3 (h); [3]) of 1.74e-09 M, an IC50 (FGFR4 (h)) of 7.41e-09 M and an IC50 (KDR (h); [4]) of 8.51e-07 M. For the same molecule, the “BAF3-FGFR3 (MIN IL3 Alamar Blue- pIC50)” value [1] was 6.50 and the “BAF3-FGFR 4 (pIC50)” value [2] was 6.02.
`COc1cc(OC)cc(N(Cc2nccn2S(=O)(=O)N(C)C)c2ccc3ncc(-c4cccnc4)cc3c2)c1` [Compound 60] was tested, and the IC50 (FGFR3 (h); [3]) was 3.16e-08 M, the IC50 (FGFR4 (h)) was 2.51e-07 M and the IC50 (KDR (h); [4]) was > 1e-06 M. For the same molecule, the “BAF3-FGFR3 (MIN IL3 Alamar Blue- pIC50)” value [1] was 5.22 and the “BAF3-FGFR 4 (pIC50)” value [2] was <5.
`COc1cc(Nc2ccc3ncc(-c4cnn(C5CCCCO5)c4)cc3c2)cc(OC)c1` (centres unmarked) [Int. 8] showed an IC50 (FGFR3 (h); [3]) of 3.72e-08 M, an IC50 (FGFR4 (h)) of 4.9e-07 M and an IC50 (KDR (h); [4]) of 3.16e-07 M. The “BAF3-FGFR3 (MIN IL3 Alamar Blue- pIC50)” value [1] was ~5.53 and the “BAF3-FGFR 4 (pIC50)” value [2] was 5.04.
